Measured values taken from the NIST ThermoML archive (doi:10.1021/je201102x).
± gives the expanded uncertainty stated by the source.

Test: xn = mol fraction of the nth substance listed
Conditions: 101 kPa, Liquid, Vibrating tube method

## CC(C)CO [2-methyl-1-propanol] + CC(=O)O
293.15 K, x2 = 0.0813
  mass density: 814.94 ± 0.22 kg/m3
293.15 K, x2 = 0.1574
  mass density: 827.82 ± 0.21 kg/m3
293.15 K, x2 = 0.2405
  mass density: 842.93 ± 0.19 kg/m3
293.15 K, x2 = 0.319
  mass density: 858.14 ± 0.17 kg/m3
293.15 K, x2 = 0.4018
  mass density: 875.36 ± 0.16 kg/m3
293.15 K, x2 = 0.4803
  mass density: 892.9 ± 0.14 kg/m3
293.15 K, x2 = 0.5599
  mass density: 911.99 ± 0.13 kg/m3
293.15 K, x2 = 0.6396
  mass density: 932.48 ± 0.11 kg/m3
293.15 K, x2 = 0.7199
  mass density: 954.87 ± 0.1 kg/m3
293.15 K, x2 = 0.7998
  mass density: 979.04 ± 0.09 kg/m3
293.15 K, x2 = 0.8786
  mass density: 1004.98 ± 0.09 kg/m3
293.15 K, x2 = 0.9595
  mass density: 1033.93 ± 0.09 kg/m3
298.15 K, x2 = 0.0813
  mass density: 810.95 ± 0.22 kg/m3
298.15 K, x2 = 0.1574
  mass density: 823.71 ± 0.21 kg/m3
298.15 K, x2 = 0.2405
  mass density: 838.69 ± 0.19 kg/m3
298.15 K, x2 = 0.319
  mass density: 853.78 ± 0.17 kg/m3
298.15 K, x2 = 0.4018
  mass density: 870.87 ± 0.16 kg/m3
298.15 K, x2 = 0.4803
  mass density: 888.27 ± 0.14 kg/m3
298.15 K, x2 = 0.5599
  mass density: 907.22 ± 0.13 kg/m3
298.15 K, x2 = 0.6396
  mass density: 927.56 ± 0.11 kg/m3
298.15 K, x2 = 0.7199
  mass density: 949.79 ± 0.1 kg/m3
298.15 K, x2 = 0.7998
  mass density: 973.8 ± 0.09 kg/m3
298.15 K, x2 = 0.8786
  mass density: 999.57 ± 0.09 kg/m3
298.15 K, x2 = 0.9595
  mass density: 1028.35 ± 0.09 kg/m3
303.15 K, x2 = 0.0813
  mass density: 806.92 ± 0.22 kg/m3
303.15 K, x2 = 0.1574
  mass density: 819.56 ± 0.21 kg/m3
303.15 K, x2 = 0.2405
  mass density: 834.42 ± 0.19 kg/m3
303.15 K, x2 = 0.319
  mass density: 849.39 ± 0.17 kg/m3
303.15 K, x2 = 0.4018
  mass density: 866.35 ± 0.16 kg/m3
303.15 K, x2 = 0.4803
  mass density: 883.63 ± 0.14 kg/m3
303.15 K, x2 = 0.5599
  mass density: 902.44 ± 0.13 kg/m3
303.15 K, x2 = 0.6396
  mass density: 922.63 ± 0.12 kg/m3
303.15 K, x2 = 0.7199
  mass density: 944.71 ± 0.1 kg/m3
303.15 K, x2 = 0.7998
  mass density: 968.56 ± 0.09 kg/m3
303.15 K, x2 = 0.8786
  mass density: 994.16 ± 0.09 kg/m3
303.15 K, x2 = 0.9595
  mass density: 1022.77 ± 0.09 kg/m3
313.15 K, x2 = 0.0813
  mass density: 798.73 ± 0.22 kg/m3
313.15 K, x2 = 0.1574
  mass density: 811.15 ± 0.21 kg/m3
313.15 K, x2 = 0.2405
  mass density: 825.76 ± 0.19 kg/m3
313.15 K, x2 = 0.319
  mass density: 840.5 ± 0.18 kg/m3
313.15 K, x2 = 0.4018
  mass density: 857.21 ± 0.16 kg/m3
313.15 K, x2 = 0.4803
  mass density: 874.24 ± 0.15 kg/m3
313.15 K, x2 = 0.5599
  mass density: 892.78 ± 0.13 kg/m3
313.15 K, x2 = 0.6396
  mass density: 912.7 ± 0.12 kg/m3
313.15 K, x2 = 0.7199
  mass density: 934.47 ± 0.11 kg/m3
313.15 K, x2 = 0.7998
  mass density: 958.02 ± 0.1 kg/m3
313.15 K, x2 = 0.8786
  mass density: 983.31 ± 0.09 kg/m3
313.15 K, x2 = 0.9595
  mass density: 1011.59 ± 0.09 kg/m3
323.15 K, x2 = 0.0813
  mass density: 790.31 ± 0.22 kg/m3
323.15 K, x2 = 0.1574
  mass density: 802.54 ± 0.21 kg/m3
323.15 K, x2 = 0.2405
  mass density: 816.92 ± 0.19 kg/m3
323.15 K, x2 = 0.319
  mass density: 831.45 ± 0.18 kg/m3
323.15 K, x2 = 0.4018
  mass density: 847.92 ± 0.16 kg/m3
323.15 K, x2 = 0.4803
  mass density: 864.7 ± 0.15 kg/m3
323.15 K, x2 = 0.5599
  mass density: 883 ± 0.13 kg/m3
323.15 K, x2 = 0.6396
  mass density: 902.65 ± 0.12 kg/m3
323.15 K, x2 = 0.7199
  mass density: 924.16 ± 0.11 kg/m3
323.15 K, x2 = 0.7998
  mass density: 947.4 ± 0.1 kg/m3
323.15 K, x2 = 0.8786
  mass density: 972.4 ± 0.09 kg/m3
323.15 K, x2 = 0.9595
  mass density: 1000.4 ± 0.08 kg/m3
333.15 K, x2 = 0.0813
  mass density: 781.64 ± 0.22 kg/m3
333.15 K, x2 = 0.1574
  mass density: 793.68 ± 0.21 kg/m3
333.15 K, x2 = 0.2405
  mass density: 807.86 ± 0.19 kg/m3
333.15 K, x2 = 0.319
  mass density: 822.19 ± 0.18 kg/m3
333.15 K, x2 = 0.4018
  mass density: 838.44 ± 0.16 kg/m3
333.15 K, x2 = 0.4803
  mass density: 855.01 ± 0.15 kg/m3
333.15 K, x2 = 0.5599
  mass density: 873.07 ± 0.14 kg/m3
333.15 K, x2 = 0.6396
  mass density: 892.49 ± 0.12 kg/m3
333.15 K, x2 = 0.7199
  mass density: 913.72 ± 0.11 kg/m3
333.15 K, x2 = 0.7998
  mass density: 936.71 ± 0.1 kg/m3
333.15 K, x2 = 0.8786
  mass density: 961.43 ± 0.09 kg/m3
333.15 K, x2 = 0.9595
  mass density: 989.16 ± 0.09 kg/m3
